Test results reported in PMC10530652 (BME Frontiers, 2021).

What was measured:
[1] = target: T1, MMP-2 (Homo sapiens, UniProt P08253); assay: In vitro enzymatic validation of FIB One with recombinant MMP-2 (plate reader); format: biochemical; conditions: marimastat 20 μM, enzyme pre-incubated 30 min at 37°C, FIB One 1 μM, MMP 30 nM
T1 construct: recombinant MMPs (Enzo Life Sciences) (active domains of MMP-1, MMP-2, MMP-3, MMP-7, MMP-8, MMP-9, MMP-10, MMP-11, MMP-12, and MMP-13); purchased Enzo Life Sciences
T1 sequence (P08253 110-446 limits assumed): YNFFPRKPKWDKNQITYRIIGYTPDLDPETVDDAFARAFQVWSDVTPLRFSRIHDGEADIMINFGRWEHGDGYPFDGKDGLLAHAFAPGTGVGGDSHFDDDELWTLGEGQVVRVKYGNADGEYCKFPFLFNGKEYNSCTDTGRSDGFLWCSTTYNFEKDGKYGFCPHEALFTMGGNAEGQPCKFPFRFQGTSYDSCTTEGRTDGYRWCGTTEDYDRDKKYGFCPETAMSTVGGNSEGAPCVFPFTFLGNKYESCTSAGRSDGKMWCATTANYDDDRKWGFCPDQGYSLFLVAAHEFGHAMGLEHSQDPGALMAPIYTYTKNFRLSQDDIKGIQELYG
Procedure: (§1) To determine the enzymatic specificity of FIB One, the probe was incubated at a concentration of 1 μM (unless otherwise stated) with the recombinant MMPs (Enzo Life Sciences) (active domains of MMP-1, MMP-2, MMP-3, MMP-7, MMP-8, MMP-9, MMP-10, MMP-11, MMP-12, and MMP-13, all at 30 nM), thrombin (Sigma Aldrich) (5 U/mL), factor Xa (Sigma Aldrich) (500 nM), plasmin (Sigma Aldrich) (30 nM), and human neutrophil elastase (30 nM). Where appropriate, enzymes were incubated with specific inhibitors for 30 min at 37°C prior to addition of FIB One. […] Enzyme free reactions served as a control. Enzymatic reactions were performed in MMP buffer (10 mM CaCl2, 6.1 g Tris-HCl, 8.6 g NaCl per litre, pH 7.5) in a final volume of 20 μL. Reactions were performed in duplicate in 384-well plates (Life Technologies) with optically clear plate seals (Thermo Scientific) and repeated thrice (independently). Fluorescence signal was measured for up to 60 min, ex/em 485/528 nm using microplate reader (BioTek Synergy H1 multimode reader). Data were normalised to buffer alone and are presented as fold-change in signal (relative fluorescent units, RFU) compared to enzyme-free controls. Data were plotted using Prism 7 (GraphPad Software Inc., La Jolla, CA, USA).

[2] = target: T2, MMP-9 (Homo sapiens, UniProt P14780); assay: In vitro enzymatic validation of FIB One with recombinant MMP-9 (plate reader); format: biochemical; conditions: marimastat 20 μM, enzyme pre-incubated 30 min at 37°C, FIB One 1 μM, MMP 30 nM
T2 construct: recombinant MMPs (Enzo Life Sciences) (active domains of MMP-1, MMP-2, MMP-3, MMP-7, MMP-8, MMP-9, MMP-10, MMP-11, MMP-12, and MMP-13); purchased Enzo Life Sciences
T2 sequence (P14780 107-444 limits assumed): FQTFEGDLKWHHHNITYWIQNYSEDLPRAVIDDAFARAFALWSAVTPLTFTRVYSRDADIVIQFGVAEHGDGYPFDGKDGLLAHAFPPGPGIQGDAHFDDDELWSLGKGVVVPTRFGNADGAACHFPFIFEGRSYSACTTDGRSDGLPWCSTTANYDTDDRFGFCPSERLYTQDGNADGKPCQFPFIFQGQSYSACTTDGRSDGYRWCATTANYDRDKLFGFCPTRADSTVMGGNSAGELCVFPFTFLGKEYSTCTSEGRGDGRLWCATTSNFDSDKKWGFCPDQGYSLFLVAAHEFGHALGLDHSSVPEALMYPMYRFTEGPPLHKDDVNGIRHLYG
Procedure: as §1

[3] = tested on: stimulated human neutrophils; assay: FIB One cleavage in supernatant from stimulated neutrophils; format: cell-based; conditions: coincubation with marimastat, FIB One 1 μM, 10 min
Procedure: Neutrophils were isolated from the blood of healthy human volunteers as previously described. The number of retrieved neutrophils was determined with NucleoCounter NC-1000 (Chemo Metec). Neutrophils were resuspended at a concentration of 20×10^6 mL^-1 in 0.9% NaCl with 0.9 mM CaCl2. Cells were incubated for 30 min at 37°C. Cells to be stimulated were subsequently activated with 5 μM calcium ionophore A23187 (Tocris Bioscience) for 30 min at 37°C. Neutrophils were harvested by centrifugation at 400 x g for 5 min. Supernatants were removed and stored. Plate reader assays were performed as described above, with the MMP buffer replaced with neutrophil supernatant. All experiments were carried out in duplicate using three independent donors (one donor per independent repeat). Data were normalised by background subtraction of intrinsic fluorescence.

[4] = tested on: primary human lung tissue; assay: Ex vivo fibre-based (FCFM) imaging of human lung tissue with FIB One; conditions: marimastat 100 μM, FIB One 1 μM, 10 min, n=9, P=0.0215
Procedure: Human lung tissue samples (lung tumour and noncancerous adjacent tissue) were obtained following surgical resection and stored at -80° C until use. Processing for multiwell plate reader assay or zymography analysis was conducted as follows: 1 mm×4 mm sections were homogenised in 400 μL MMP buffer in Precellys 2.8 mm ceramic bead tubes (VWR) using a Pecellys 24 homogeniser. Homogenised tissue was adjusted to 4 mg mL^-1 protein (determined by a Pierce BCA Total Protein Assay Kit (Thermo Fisher Scientific), following the manufacturer’s instructions). Multiwell plate reader assays were performed as previously described, replacing the MMP buffer and MMP enzymes for the homogenised and protein-adjusted lung tissue.
For ex vivo imaging, human lung tissue was sliced into 1 mm×4 mm sections and placed in the wells of a 96-well plate with 100 μL of MMP buffer and 30 nM MMP-13. […] The fluorescence for each sample was calculated by determining the average fluorescence per frame for each time point. […] Five independent patient specimens were collected and analysed. RFUs collected from off-target frames (showing motion artefact or absence of any fluorescence) were omitted during analysis.

[5] = tested on: MMP activity in ex vivo ventilated ovine lung; assay: Ex vivo ovine lung model instilled with OPA supernatant, FCFM imaging; conditions: marimastat 100 μM with OPA supernatant, 5 μM FIB One
Procedure: Ovine pulmonary adenocarcinoma (OPA) tissue was homogenised using a drill homogeniser, followed by lysis in cell lysis buffer. The supernatant was collected following centrifugation at 12,000 rpm for 20 min. The samples were adjusted to 1 mg mL^-1 total protein (determined by a Pierce BCA Total Protein Assay Kit (Thermo Fisher Scientific)). Zymography (as described above) was performed to confirm MMP activity across multiple OPA samples. Recombinant MMP-9 (2 nM) and recombinant pro-MMP-9 (0.5 nM) were included in the assay as positive controls. […] Following >30 min, the segments were bronchoscopically identified and microdosed with 5 μM FIB One in 1 mL. FCFM imaging was undertaken pre- and postinstillation (Cellvizio®, Mauna Kea Technologies). This was performed by passing a FCFM fibre into the disparate bronchopulmonary segments (up to 5 passes per bronchopulmonary segment to capture a regional representation of fluorescence), recording images at 12 frames per second and imaging for up to 5 minutes. Videos were analysed as described above. Each experimental set was normalised to the control segment (segment with 1 mL 0.9% NaCl instilled) which represents intrinsic autofluorescence.

[6] = supernatant from stimulated (5 μM calcium ionophore A23187) neutrophils; conditions: human, up to 10 minutes

Row | Compound | inhibition of FIB One activation [1] | inhibition of FIB One activation [2] | inhibition of FIB One cleavage [3] | inhibition of FIB One cleavage [4] | FIB One signal in inhibitor-dosed segments [5] | fragment found [6]
1 | CNC(=O)[C@@H](NC(=O)[C@H](CC(C)C)[C@H](O)C(=O)NO)C(C)(C)C [marimastat, reference compound] | blocked | blocked | cleavage inhibition observed | cleavage inhibition observed | did not show an increase in FIB One signal | –
2 | FAM-PEG2-Pro-Phe-Gly-Nle-Lys-βAla-Lys(MethylRed)-PEG2-(D)Lys-PEG2-(D)Lys | – | – | – | – | – | peak at 823 Da, 10 min
